The target in experiment [1] is T1, Protein farnesyltransferase (Mus musculus) (UniProt Q61239+Q8K2I1). Nature of the experiment: (§1) Percent inhibition of H-ras processing in transformed NIH3T3 cells at 100 nM. It is filed as functional, cell-based.
The target of experiment [2] is T2, Protein farnesyltransferase (Bos taurus, UniProt P29702+P49355). Nature of the experiment: Inhibition of bovine farnesyltransferase. It counts as protein-complex assay.
For experiment [3], the target named is T3, Geranylgeranyl transferase type I (Bos taurus, UniProt P29702+Q5EAD5). The experiment is described as follows: Inhibition of bovine geranylgeranyl transferase. It is filed as protein-complex assay.
Experiment [4] has as its target T1, Protein farnesyltransferase (Mus musculus). The experiment is described as follows: Percent inhibition of H-ras processing in transformed NIH3T3 cells at 1000 nM. It is filed as functional, cell-based.
Experiment [5] has as its target Protein farnesyltransferase (Mus musculus, UniProt Q61239+Q8K2I1). Nature of the experiment: Inhibition of H-ras processing in transformed NIH3T3 cells. It is filed as functional, cell-based.
Experiment [6] addresses T1, Protein farnesyltransferase (Mus musculus). Described as §1. It counts as functional, cell-based. The source holds these as a separate data set.
The target of experiment [7] is T3, Geranylgeranyl transferase type I. The experiment is described as follows: Inhibition of bovine Geranylgeranyltransferase. It is filed as protein-complex assay.
Experiment [8] addresses T2, Protein farnesyltransferase. Nature of the experiment: Inhibition of bovine Farnesyltransferase. It counts as protein-complex assay.

Molecules are shown by their SMILES.

In experiment [1], `Cn1c(=O)cc(-c2cccc(Cl)c2)c2cc(C(N)c3cncn3Cc3ccc(C#N)cc3)ccc21` (configuration not stated) had an inhibition of 42%. In addition, the IC50 in experiment [2] amounted to 3.8 nM; in experiment [3] it was 22 µM.
For `N#Cc1cn(Cc2cncn2Cc2ccc3c(c2)OCO3)cc1-c1cccc2ccccc12`, in experiment [4], the inhibition was found to be 68%. In addition, the IC50 in experiment [2] came to 6.1 nM; in experiment [3] it was 0.52 µM.
Turning to `N#Cc1ccc(Cn2cncc2Cn2ccc3c(C#N)c(-c4cccc5ccccc45)ccc32)cc1`, the IC50 came out at 0.15 nM in experiment [2] and 0.11 µM in experiment [3]. This compound gave an EC50 in experiment [5] of 2.1 nM.
Compound `Cn1c(=O)cc(-c2cccc(Cl)c2)c2cc(COCc3cncn3Cc3ccc(C#N)cc3)ccc21` came in with an IC50 in experiment [2] of 89 nM.
With `Cn1c(=O)cc(-c2cccc(Cl)c2)c2cc(C(=O)c3cncn3Cc3ccc(C#N)cc3)ccc21`, in experiment [1], the inhibition came to 30%. Moreover, the IC50 was 29 nM in experiment [2] and under 10 µM in experiment [3].
For `Cn1c(=O)cc(-c2cccc(Cl)c2)c2cc(Cn3cncc3Cc3ccc(C#N)cc3)cnc21`, in experiment [1], the inhibition stood at 39%. Besides, the IC50 turned out to be 10 nM in experiment [2] and 4 µM in experiment [3].
For `Cn1c(=O)cc(-c2cccc(Cl)c2)c2cc(Cn3cncc3Cn3ccc(C#N)c3)ccc21`, the IC50 in experiment [2] turned out to be 560 nM.
Consider `Cn1c(=O)cc(-c2cccc(Cl)c2)c2cc(Cn3cncc3C(O)c3ccc(C#N)cc3)ccc21` (configuration not stated), for which the results for the IC50 in experiment [2] and in experiment [3] were 44 nM and over 10 µM, respectively.
In experiment [2], `Cn1c(=O)cc(-c2cccc(Cl)c2)c2cc(Cn3cncc3COc3ccc(C#N)cc3)ccc21` came in with an IC50 of over 1000 nM.
Take `N#Cc1ccc(Cn2cncc2Cn2cc(C#N)c(-c3cccc4ccccc34)c2)cc1`: the values for the IC50 in experiment [2] and in experiment [3] were 0.58 nM and 0.14 µM, respectively. Further, in experiment [5], the EC50 worked out at 34 nM.
Regarding `Cn1c(=O)cc(-c2cccc(Cl)c2)c2cc(Cn3cncc3Cn3ccc(=O)cc3)ccc21`, the IC50 in experiment [2] is over 1000 nM.
Same read-out and setting: the same measure for `Cn1c(=O)cc(-c2cccc(Cl)c2)c2cc(Cn3cncc3Cn3ccc(C(=O)N4CCOCC4)c3)ccc21`: over 1000 nM.
For the compound `Cn1c(=O)cc(-c2cccc(Cl)c2)c2cc(Cn3cncc3Cc3ccc(C#N)cc3)ccc21`, the inhibition in experiment [6] and in experiment [1] was 57% throughout. Also, the IC50 in experiment [7] was 17 µM; in experiment [2], 7.2 nM; in experiment [3], over 10 µM; in experiment [8], 4.7 nM.
The compound `Cn1c(=O)cc(-c2cccc(Cl)c2)c2cc(C(O)c3cncn3Cc3ccc(C#N)cc3)ccc21` (configuration not stated) displayed an inhibition in experiment [1] of 32%. Moreover, the figures for the IC50 in experiment [2] and in experiment [3] were 4.7 nM and 17 µM, respectively.
The compound `Cn1cncc1[C@@](N)(c1ccc(Cl)cc1)c1ccc2c(c1)c(-c1cccc(Cl)c1)cc(=O)n2C` came in with an inhibition in experiment [1] of 1.6%.
Take `CC(=O)OC(c1ccc(C#N)cc1)c1cncn1Cc1ccc2c(c1)c(-c1cccc(Cl)c1)cc(=O)n2C` (configuration not stated): the IC50 in experiment [2] was over 1000 nM; in experiment [3] it was over 1 µM.
In experiment [2], `Cn1c(=O)cc(-c2cccc(Cl)c2)c2cc(Cn3cncc3COCc3ccc(C#N)cc3)ccc21` returned an IC50 of over 1000 nM.
On the same count and under the same terms, the value for `Cn1cncc1C(OCc1ccc2c(c1)c(-c1cccc(Cl)c1)cc(=O)n2C)c1ccc(C#N)cc1` (configuration not stated) was 80 nM.
Regarding `Cn1c(=O)cc(-c2cccc(Cl)c2)c2cc(C(NC=O)c3cncn3Cc3ccc(C#N)cc3)ccc21` (configuration not stated), the inhibition in experiment [1] is 28%. In addition, the IC50 was 2.1 nM in experiment [2] and over 10 µM in experiment [3].
Take `NC(=O)N1CCC(CC(=O)N2CCC([C@H]3c4ncc(Br)cc4CCc4cc(Cl)cc(Br)c43)CC2)CC1` [LONAFARNIB]: in experiment [1], the inhibition was 100%. In addition, the IC50 in experiment [3] is over 10 µM.
As to `N#Cc1ccc(Cn2cncc2Cn2ccc3cc(-c4cccc5ccccc45)ccc32)cc1`, the half-maximal inhibitory concentration (IC50) in experiment [2] was 0.93 nM; in experiment [3], 0.27 µM. Further, in experiment [5], a half-maximal response (EC50) required 5.7 nM.
